Calls of active or inactive are those of the source. The rule behind the calls is not given here.
Assays:
Escherichia coli [1] = test: Antibacterial activity against Escherichia coli DH5alpha assessed as bacterial cell density at 500 uM relative to control; format: functional, DH5[alpha]
Pseudomonas aeruginosa [2] = test: Antibacterial activity against Pseudomonas aeruginosa NBRC13275 assessed as bacterial cell density at 500 uM relative to control; format: functional
Staphylococcus aureus [3] = test: Antibacterial activity against Staphylococcus aureus NBRC13276 assessed as bacterial cell density at 500 uM relative to control; format: functional
Streptococcus mutans [4] = test: Antibacterial activity against Streptococcus mutans NBRC13955 assessed as bacterial cell density at 500 uM relative to control; format: functional
Escherichia coli [5] = test: Antibiofilm activity against Escherichia coli DH5alpha assessed as inhibition of biofilm formation at 500 uM incubated for 24 hrs by crystal violet staining based microtiter plate reader assay relative to control; values are per cent of control; conditions: DH5[alpha]
Streptococcus mutans [6] = test: Antibiofilm activity against Streptococcus mutans NBRC13955 assessed as inhibition of biofilm formation at 500 uM incubated for 24 hrs by crystal violet staining based microtiter plate reader assay relative to control; values are per cent of control; conditions: NBRC13955, 24 h
Pseudomonas aeruginosa [7] = test: Antibiofilm activity against Pseudomonas aeruginosa NBRC13275 assessed as inhibition of biofilm formation at 500 uM incubated for 6 hrs by crystal violet staining based microtiter plate reader assay relative to control; values are per cent of control; conditions: NBRC13275, 6 h
Staphylococcus aureus [8] = test: Antibiofilm activity against Staphylococcus aureus NBRC13276 assessed as inhibition of biofilm formation at 500 uM incubated for 24 hrs by crystal violet staining based microtiter plate reader assay relative to control; values are per cent of control; conditions: NBRC13276, 24 h
[9] = Growth inhibition of Staphylococcus aureus NBRC13276 at 1000 uM
Pseudomonas aeruginosa [10] = test: Antimicrobial activity against Pseudomonas aeruginosa assessed as inhibition of flagella synthesis relative to control; format: functional, organism-based

## CC(C)C(=O)N1CCN(C(=O)Cn2cnc3c(=O)[nH]c(N)nc32)CCN(C(=O)C(C)C)CCN(C(=O)Cn2cnc3c(=O)[nH]c(N)nc32)CC1
Escherichia coli [1]
  Activity: 559%
Pseudomonas aeruginosa [2]
  Activity: 313%
Staphylococcus aureus [3]
  Activity: 267%
Streptococcus mutans [4]
  Activity: 206%
Escherichia coli [5]
  biofilm formation (% of control) at 500 µM: 118%
Streptococcus mutans [6]
  biofilm formation (% of control) at 500 µM: 88%
Pseudomonas aeruginosa [7]
  biofilm formation (% of control) at 500 µM: 114%
Staphylococcus aureus [8]
  biofilm formation (% of control) at 500 µM: 87%

## NCCN(CCNC(=O)Cn1cnc2c(=O)[nH]c(N)nc21)C(=O)Cn1cnc2c(=O)[nH]c(N)nc21
Escherichia coli [1]
  Activity: 95%
Pseudomonas aeruginosa [2]
  Activity: 116%
Staphylococcus aureus [3]
  Activity: 124%
Streptococcus mutans [4]
  Activity: 98%
Escherichia coli [5]
  biofilm formation (% of control) at 500 µM: 104%
Streptococcus mutans [6]
  biofilm formation (% of control) at 500 µM: 87%
Pseudomonas aeruginosa [7]
  biofilm formation (% of control) at 500 µM: 103%
Staphylococcus aureus [8]
  biofilm formation (% of control) at 500 µM: 87%

## Nc1nc2c(ncn2CC(=O)N2CCN(C(=O)OCc3ccccc3)CCN(C(=O)Cn3cnc4c(=O)[nH]c(N)nc43)CCN(C(=O)OCc3ccccc3)CC2)c(=O)[nH]1
Escherichia coli [1]
  Activity: 91%
Pseudomonas aeruginosa [2]
  Activity: 105%
Staphylococcus aureus [3]
  Activity: 111%
Streptococcus mutans [4]
  Activity: 143%
Escherichia coli [5]
  biofilm formation (% of control) at 500 µM: 138%
Streptococcus mutans [6]
  biofilm formation (% of control) at 500 µM: 17%
Pseudomonas aeruginosa [7]
  biofilm formation (% of control) at 500 µM: 86%
Staphylococcus aureus [8]
  biofilm formation (% of control) at 500 µM: 80%

## Nc1nc2c(ncn2CC(=O)NCCNCCNC(=O)Cn2cnc3c(=O)[nH]c(N)nc32)c(=O)[nH]1
Escherichia coli [1]
  Activity: 95%
Pseudomonas aeruginosa [2]
  Activity: 112%
Staphylococcus aureus [3]
  Activity: 102%
Streptococcus mutans [4]
  Activity: 109%
Escherichia coli [5]
  biofilm formation (% of control) at 500 µM: 99%
Streptococcus mutans [6]
  biofilm formation (% of control) at 500 µM: 98%
Pseudomonas aeruginosa [7]
  biofilm formation (% of control) at 500 µM: 87%
Staphylococcus aureus [8]
  biofilm formation (% of control) at 500 µM: 42%

## Nc1nc2c(ncn2[C@@H]2O[C@@H]3COP(=O)(O)O[C@H]4[C@@H](O)[C@H](n5cnc6c(=O)[nH]c(N)nc65)O[C@@H]4COP(=O)(O)O[C@H]3[C@H]2O)c(=O)[nH]1
Escherichia coli [1]
  Activity: 76%
Pseudomonas aeruginosa [2]
  Activity: 78%
Staphylococcus aureus [3]
  Activity: 106%
Streptococcus mutans [4]
  Activity: 98%
Escherichia coli [5]
  biofilm formation (% of control) at 500 µM: 81%
Streptococcus mutans [6]
  biofilm formation (% of control) at 500 µM: 18%
Pseudomonas aeruginosa [7]
  biofilm formation (% of control) at 500 µM: 48%
Staphylococcus aureus [8]
  biofilm formation (% of control) at 500 µM: 123%

## CC(=O)N(CCNC(=O)Cn1cnc2c(=O)[nH]c(N)nc21)CCNC(=O)Cn1cnc2c(=O)[nH]c(N)nc21
Escherichia coli [1]
  Activity: 101%
Pseudomonas aeruginosa [2]
  Activity: 119%
Staphylococcus aureus [3]
  Activity: 108%
Streptococcus mutans [4]
  Activity: 154%
Escherichia coli [5]
  biofilm formation (% of control) at 500 µM: 116%
Streptococcus mutans [6]
  biofilm formation (% of control) at 500 µM: 87%
Pseudomonas aeruginosa [7]
  biofilm formation (% of control) at 500 µM: 104%
Staphylococcus aureus [8]
  biofilm formation (% of control) at 500 µM: 76%

## Nc1nc2c(ncn2CC(=O)N2CCN(CC(=O)O)CCN(C(=O)Cn3cnc4c(=O)[nH]c(N)nc43)CCN(CC(=O)O)CC2)c(=O)[nH]1
Escherichia coli [1]
  Activity: 85%
Pseudomonas aeruginosa [2]
  Activity: 90%
Staphylococcus aureus [3]
  Activity: 117%
Streptococcus mutans [4]
  Activity: 105%
Escherichia coli [5]
  biofilm formation (% of control) at 500 µM: 83%
Streptococcus mutans [6]
  biofilm formation (% of control) at 500 µM: 90%
Pseudomonas aeruginosa [7]
  biofilm formation (% of control) at 500 µM: 82%
Staphylococcus aureus [8]
  biofilm formation (% of control) at 500 µM: 74%

## CCC(=O)N1CCN(C(=O)Cn2cnc3c(=O)[nH]c(N)nc32)CCN(C(=O)CC)CCN(C(=O)Cn2cnc3c(=O)[nH]c(N)nc32)CC1
Escherichia coli [1]
  Activity: 105%
Pseudomonas aeruginosa [2]
  Activity: 118%
Staphylococcus aureus [3]
  Activity: 124%
Streptococcus mutans [4]
  Activity: 117%
Escherichia coli [5]
  biofilm formation (% of control) at 500 µM: 153%
Streptococcus mutans [6]
  biofilm formation (% of control) at 500 µM: 46%
Pseudomonas aeruginosa [7]
  biofilm formation (% of control) at 500 µM: 76%
Staphylococcus aureus [8]
  biofilm formation (% of control) at 500 µM: 76%

## CC(C)C(=O)N(CCNC(=O)Cn1cnc2c(=O)[nH]c(N)nc21)CCNC(=O)Cn1cnc2c(=O)[nH]c(N)nc21
Escherichia coli [1]
  Activity: 97%
Pseudomonas aeruginosa [2]
  Activity: 98%
Staphylococcus aureus [3]
  Activity: 92%
Streptococcus mutans [4]
  Activity: 104%
Escherichia coli [5]
  biofilm formation (% of control) at 500 µM: 107%
Streptococcus mutans [6]
  biofilm formation (% of control) at 500 µM: 147%
Pseudomonas aeruginosa [7]
  biofilm formation (% of control) at 500 µM: 83%
Staphylococcus aureus [8]
  biofilm formation (% of control) at 500 µM: 103%

## Nc1nc2c(ncn2CC(=O)N2CCNCCN(C(=O)Cn3cnc4c(=O)[nH]c(N)nc43)CCNCC2)c(=O)[nH]1
Escherichia coli [1]
  Activity: 93%
Pseudomonas aeruginosa [2]
  Activity: 100%
Staphylococcus aureus [3]
  Activity: 108%
Streptococcus mutans [4]
  Activity: 138%
Escherichia coli [5]
  biofilm formation (% of control) at 500 µM: 133%
Streptococcus mutans [6]
  biofilm formation (% of control) at 500 µM: 96%
Pseudomonas aeruginosa [7]
  biofilm formation (% of control) at 500 µM: 85%
Staphylococcus aureus [8]
  biofilm formation (% of control) at 500 µM: 89%

## CC(=O)N1CCN(C(=O)Cn2cnc3c(=O)[nH]c(N)nc32)CCN(C(C)=O)CCN(C(=O)Cn2cnc3c(=O)[nH]c(N)nc32)CC1
Escherichia coli [1]
  Activity: 52%
Pseudomonas aeruginosa [2]
  Activity: 90%
Staphylococcus aureus [3]
  Activity: 150%
Streptococcus mutans [4]
  Activity: 136%
[9]
  growth inhibition (GI): Non-Toxic
Pseudomonas aeruginosa [10]
  Activity: inactive
Escherichia coli [5]
  biofilm formation (% of control) at 500 µM: 36%
Streptococcus mutans [6]
  biofilm formation (% of control) at 500 µM: 40%
Pseudomonas aeruginosa [7]
  biofilm formation (% of control) at 500 µM: 60%
Staphylococcus aureus [8]
  biofilm formation (% of control) at 500 µM: 20%

## Nc1nc2c(ncn2CC(=O)NCCN(CCNC(=O)Cn2cnc3c(=O)[nH]c(N)nc32)CC(=O)O)c(=O)[nH]1
Escherichia coli [1]
  Activity: 95%
Pseudomonas aeruginosa [2]
  Activity: 126%
Staphylococcus aureus [3]
  Activity: 99%
Streptococcus mutans [4]
  Activity: 188%
Escherichia coli [5]
  biofilm formation (% of control) at 500 µM: 138%
Streptococcus mutans [6]
  biofilm formation (% of control) at 500 µM: 78%
Pseudomonas aeruginosa [7]
  biofilm formation (% of control) at 500 µM: 82%
Staphylococcus aureus [8]
  biofilm formation (% of control) at 500 µM: 87%

## CC(=O)NCCNCCNC(=O)Cn1cnc2c(=O)[nH]c(N)nc21
Escherichia coli [1]
  Activity: 85%
Pseudomonas aeruginosa [2]
  Activity: 119%
Staphylococcus aureus [3]
  Activity: 100%
Streptococcus mutans [4]
  Activity: 92%
Escherichia coli [5]
  biofilm formation (% of control) at 500 µM: 108%
Streptococcus mutans [6]
  biofilm formation (% of control) at 500 µM: 101%
Pseudomonas aeruginosa [7]
  biofilm formation (% of control) at 500 µM: 99%
Staphylococcus aureus [8]
  biofilm formation (% of control) at 500 µM: 135%

## CCC(=O)N(CCNC(=O)Cn1cnc2c(=O)[nH]c(N)nc21)CCNC(=O)Cn1cnc2c(=O)[nH]c(N)nc21
Escherichia coli [1]
  Activity: 95%
Pseudomonas aeruginosa [2]
  Activity: 98%
Staphylococcus aureus [3]
  Activity: 92%
Streptococcus mutans [4]
  Activity: 106%
Escherichia coli [5]
  biofilm formation (% of control) at 500 µM: 97%
Streptococcus mutans [6]
  biofilm formation (% of control) at 500 µM: 125%
Pseudomonas aeruginosa [7]
  biofilm formation (% of control) at 500 µM: 94%
Staphylococcus aureus [8]
  biofilm formation (% of control) at 500 µM: 85%

## Nc1nc2c(ncn2CC(=O)N2CCNCCN(C(=O)Cn3cnc4c(=O)[nH]c(N)nc43)CC2)c(=O)[nH]1
Escherichia coli [1]
  Activity: 95%
Pseudomonas aeruginosa [2]
  Activity: 105%
Staphylococcus aureus [3]
  Activity: 103%
Streptococcus mutans [4]
  Activity: 121%
Escherichia coli [5]
  biofilm formation (% of control) at 500 µM: 103%
Streptococcus mutans [6]
  biofilm formation (% of control) at 500 µM: 92%
Pseudomonas aeruginosa [7]
  biofilm formation (% of control) at 500 µM: 105%
Staphylococcus aureus [8]
  biofilm formation (% of control) at 500 µM: 92%
